Test results as given in ChEMBL document CHEMBL4017483, “Potent and selective oxytocin receptor agonists without disulfide bridges” (Bioorg Med Chem Lett, 2017).
Numbered stars: 1 amine (or outer) side, 2 acyl side, 3 side chain; on linkers, the order of the positions; unused ones are H or OH. Bridge positions count the residues as written; N and C are the ends. Square brackets hold non-standard residues; d marks the D form. Peptide text beside a SMILES is read from it. Hyp = O=C(O)[C@@H]1C[C@@H](O)CN1; tBuAla = CC(C)(C)C[C@H](N)C(=O)O; Suc = O=C(CCC(=O)[*:2])[*:1]; NMeA = CN[C@@H](C)C(=O)O; Dap = NC[C@H](N)C(=O)O; Mpa = O=C(O)CCS

What was measured:
[1] = target: T1, Oxytocin receptor (Homo sapiens, UniProt P30559); test: Agonist activity at human OTR expressed in CHO cells assessed as calcium mobilization measured after 30 mins by Fluo-4-AM dye based FLIPR assay; type: functional, cell-based
T1 sequence (P30559 whole entry): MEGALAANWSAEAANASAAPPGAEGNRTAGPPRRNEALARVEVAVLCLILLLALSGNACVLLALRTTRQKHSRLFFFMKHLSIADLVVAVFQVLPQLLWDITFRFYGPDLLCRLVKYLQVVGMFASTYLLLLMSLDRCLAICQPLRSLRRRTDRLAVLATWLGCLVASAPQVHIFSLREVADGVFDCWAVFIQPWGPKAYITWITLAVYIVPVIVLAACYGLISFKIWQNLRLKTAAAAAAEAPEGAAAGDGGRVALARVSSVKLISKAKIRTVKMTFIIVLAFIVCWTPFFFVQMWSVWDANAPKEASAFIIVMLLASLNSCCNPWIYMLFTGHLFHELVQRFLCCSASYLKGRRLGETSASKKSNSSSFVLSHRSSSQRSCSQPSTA

[2] = target: Vasopressin V1a receptor (Homo sapiens, UniProt P37288); test: Agonist activity at human V1a receptor expressed in CHO cells assessed as calcium mobilization measured after 30 mins by Fluo-4-AM dye based FLIPR assay; type: cell-based
Sequence of Vasopressin V1a receptor (P37288 whole entry): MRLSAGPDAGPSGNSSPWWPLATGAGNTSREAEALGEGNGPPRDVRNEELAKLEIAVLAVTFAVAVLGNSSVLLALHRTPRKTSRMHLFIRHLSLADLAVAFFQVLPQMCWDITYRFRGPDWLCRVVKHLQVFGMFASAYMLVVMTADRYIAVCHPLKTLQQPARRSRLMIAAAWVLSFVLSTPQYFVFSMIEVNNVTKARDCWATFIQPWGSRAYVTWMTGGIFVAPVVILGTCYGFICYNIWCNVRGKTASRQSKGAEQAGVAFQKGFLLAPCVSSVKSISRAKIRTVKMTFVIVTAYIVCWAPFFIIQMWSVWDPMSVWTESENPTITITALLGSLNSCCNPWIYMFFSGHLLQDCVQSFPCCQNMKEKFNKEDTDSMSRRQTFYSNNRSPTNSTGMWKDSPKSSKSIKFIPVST

[3] = target: T2, Vasopressin V1b receptor (Homo sapiens, UniProt P47901); test: Agonist activity at human V1b receptor expressed in CHO cells assessed as calcium mobilization measured after 30 mins by Fluo-4-AM dye based FLIPR assay; type: cell-based
T2 sequence (P47901 whole entry): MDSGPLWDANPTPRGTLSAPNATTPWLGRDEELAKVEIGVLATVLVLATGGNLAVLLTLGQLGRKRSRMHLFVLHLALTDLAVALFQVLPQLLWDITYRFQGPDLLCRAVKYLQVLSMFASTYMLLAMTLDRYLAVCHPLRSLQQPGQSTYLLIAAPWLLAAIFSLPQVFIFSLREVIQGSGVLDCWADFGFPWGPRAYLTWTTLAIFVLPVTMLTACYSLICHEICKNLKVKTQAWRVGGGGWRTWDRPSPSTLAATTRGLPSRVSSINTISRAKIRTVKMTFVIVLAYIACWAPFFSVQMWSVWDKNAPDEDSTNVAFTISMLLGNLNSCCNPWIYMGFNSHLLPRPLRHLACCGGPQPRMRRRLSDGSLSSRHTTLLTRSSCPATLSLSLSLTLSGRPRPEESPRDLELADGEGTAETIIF

[4] = organism: Homo sapiens; test: Selectivity ratio of EC50 for human V1a receptor to EC50 for human OTR
[5] = organism: Homo sapiens; test: Selectivity ratio of EC50 for human V1b receptor to EC50 for human OTR

Row | Compound | EC50 [1] [nM] | EC50 [2] [nM] | EC50 [3] [nM] | Ratio EC50 [4] | Ratio EC50 [5]
1 | CC[C@H](C)[C@@H]1NC(=O)[C@H](Cc2ccc(O)cc2)NC(=O)CCSSC[C@@H](C(=O)N[C@@H](CCCNC(=N)N)C(=O)N[C@@H](CC(C)C)C(=O)NCC(N)=O)NC(=O)[C@H](CC(N)=O)NC(=O)[C@H](CCC(N)=O)NC1=O ([Mpa]YIQNCRLG-NH2; disulfide 1-6) | 1.5 | > 100 | > 100 | > 10 | > 10
2 | CC[C@H](C)[C@@H]1NC(=O)[C@H](Cc2ccc(O)cc2)NC(=O)CCC(=O)NC[C@@H](C(=O)N2CCC[C@H]2C(=O)N[C@@H](CC(C)C)C(=O)NCC(N)=O)NC(=O)[C@H](CC(N)=O)NC(=O)[C@H](CCC(N)=O)NC1=O (YIQN[Dap]PLG-NH2; linker N-5 via Suc) | 0.12 | > 100 | > 100 | > 100 | > 100
3 | CC[C@H](C)[C@@H]1NC(=O)[C@H](Cc2ccc(O)cc2)NC(=O)CCSSC[C@@H](C(=O)N(C)[C@@H](C)C(=O)N[C@@H](CC(C)C)C(=O)NCC(N)=O)NC(=O)[C@H](CC(N)=O)NC(=O)[C@H](CCC(N)=O)NC1=O ([Mpa]YIQNC[NMeA]LG-NH2; disulfide 1-6) | 0.11 | > 100 | > 100 | > 100 | > 100
4 | CC[C@H](C)[C@@H]1NC(=O)[C@H](Cc2ccc(O)cc2)NC(=O)CCC(=O)NC[C@@H](C(=O)N2C[C@H](O)C[C@H]2C(=O)N[C@@H](CC(C)C)C(=O)NCC(N)=O)NC(=O)[C@H](CC(N)=O)NC(=O)[C@H](CCC(N)=O)NC1=O (YIQN[Dap][Hyp]LG-NH2; linker N-5 via Suc) | 0.013 | > 100 | > 100 | > 1000 | > 1000
5 | CCCCCC[C@H](NC(=O)[C@@H]1CCCN1C(=O)[C@@H]1CSSCCC(=O)N[C@@H](Cc2ccc(O)cc2)C(=O)N[C@@H]([C@@H](C)CC)C(=O)N[C@@H](CCC(N)=O)C(=O)N[C@@H](CC(N)=O)C(=O)N1)C(=O)NCC(N)=O | 0.027 | 3.1 | 0.55 | 120 | 20
6 | CC[C@H](C)[C@@H]1NC(=O)[C@H](Cc2ccc(O)cc2)NC(=O)CCSSC[C@@H](C(=O)N2CCC[C@H]2C(=O)N[C@@H](CC(C)C)C(=O)NCC(N)=O)NC(=O)[C@H](CCC(=O)O)NC(=O)[C@H](CCC(N)=O)NC1=O ([Mpa]YIQECPLG-NH2; disulfide 1-6) | 89 | > 100 | > 100 | > 1 | > 1
7 | CC[C@H](C)[C@@H]1NC(=O)[C@H](Cc2ccc(O)cc2)NC(=O)CCSSC[C@@H](C(=O)N2CCC[C@H]2C(=O)N[C@H](C(=O)NCC(N)=O)C(C)C)NC(=O)[C@H](CC(N)=O)NC(=O)[C@H](CCC(N)=O)NC1=O ([Mpa]YIQNCPVG-NH2; disulfide 1-6) | 0.014 | 5.1 | 1.3 | 360 | 93
8 | CC[C@H](C)[C@@H]1NC(=O)[C@H](Cc2ccc(O)cc2)NC(=O)CCSSC[C@@H](C(=O)N2CCC[C@H]2C(=O)N[C@@H](CC(C)C)C(=O)N[C@@H](CCC(=O)O)C(N)=O)NC(=O)[C@H](CC(N)=O)NC(=O)[C@H](CCC(N)=O)NC1=O ([Mpa]YIQNCPLE-NH2; disulfide 1-6) | 9.5 | > 100 | > 100 | > 10 | > 10
9 | CC[C@H](C)[C@@H]1NC(=O)[C@H](CC(C)C)NC(=O)CCSSC[C@@H](C(=O)N2CCC[C@H]2C(=O)N[C@@H](CC(C)C)C(=O)NCC(N)=O)NC(=O)[C@H](CC(N)=O)NC(=O)[C@H](CCC(N)=O)NC1=O ([Mpa]LIQNCPLG-NH2; disulfide 1-6) | 3.6 | > 100 | > 100 | > 10 | > 10
10 | CC[C@H](C)[C@@H]1NC(=O)[C@H](Cc2ccc(O)cc2)NC(=O)CCSSC[C@@H](C(=O)N2CCC[C@H]2C(=O)N[C@@H](CC(C)C)C(=O)NCC(N)=O)NC(=O)[C@H](CC(N)=O)NC(=O)[C@H](CCC(=O)O)NC1=O ([Mpa]YIENCPLG-NH2; disulfide 1-6) | 5.1 | > 100 | > 100 | > 10 | > 10
11 | CC[C@H](C)[C@@H]1NC(=O)[C@H](Cc2ccc(O)cc2)NC(=O)CCC(=O)NC[C@@H](C(=O)N2CCC[C@H]2C(=O)N[C@@H](CC(C)(C)C)C(=O)NCC(N)=O)NC(=O)[C@H](CC(N)=O)NC(=O)[C@H](CCC(N)=O)NC1=O (YIQN[Dap]P[tBuAla]G-NH2; linker N-5 via Suc) | 0.26 | > 100 | > 100 | > 100 | > 100

Continued, values first:

Row | EC50 [1] [nM] | EC50 [2] [nM] | EC50 [3] [nM] | Ratio EC50 [4] | Ratio EC50 [5] | Compound
12 | 0.11 | > 100 | 0.43 | > 100 | 3.9 | CC(C)C[C@H](NC(=O)[C@@H]1CCCN1C(=O)[C@@H]1CSSCCC(=O)N[C@@H](Cc2ccc(O)cc2)C(=O)N[C@@H](Cc2ccccc2)C(=O)N[C@@H](CCC(N)=O)C(=O)N[C@@H](CC(N)=O)C(=O)N1)C(=O)NCC(N)=O ([Mpa]YFQNCPLG-NH2; disulfide 1-6)
13 | 0.24 | > 100 | 69 | > 100 | 290 | CC[C@H](C)[C@@H]1NC(=O)[C@H](Cc2ccc(O)cc2)NC(=O)CCSSC[C@@H](C(=O)N2CCC[C@H]2C(=O)N[C@@H](CC(C)C)C(=O)NCC(N)=O)NC(=O)[C@H](CC(N)=O)NC(=O)[C@H](C)NC1=O ([Mpa]YIANCPLG-NH2; disulfide 1-6)
14 | 0.12 | > 100 | > 100 | > 100 | > 100 | CC[C@H](C)[C@@H]1NC(=O)[C@H](Cc2ccc(O)cc2)NC(=O)CCSSC[C@@H](C(=O)N[C@@H](Cc2ccccc2)C(=O)N[C@@H](CC(C)C)C(=O)NCC(N)=O)NC(=O)[C@H](CC(N)=O)NC(=O)[C@H](CCC(N)=O)NC1=O ([Mpa]YIQNCFLG-NH2; disulfide 1-6)
15 | 0.027 | 3.1 | 0.55 | 120 | 20 | CCCCCCC(NC(=O)[C@@H]1CCCN1C(=O)[C@@H]1CSSCCC(=O)N[C@@H](Cc2ccc(O)cc2)C(=O)N[C@@H]([C@@H](C)CC)C(=O)N[C@@H](CCC(N)=O)C(=O)N[C@@H](CC(N)=O)C(=O)N1)C(=O)NCC(N)=O (stereo not given in full)
16 | 0.53 | > 100 | > 100 | > 100 | > 100 | CC[C@H](C)[C@@H]1NC(=O)[C@H](Cc2ccc(O)cc2)NC(=O)CCSSC[C@@H](C(=O)N2CCC[C@H]2C(=O)N[C@@H](CC(C)C)C(=O)N[C@@H](CCCNC(=N)N)C(N)=O)NC(=O)[C@H](CC(N)=O)NC(=O)[C@H](CCC(N)=O)NC1=O ([Mpa]YIQNCPLR-NH2; disulfide 1-6)
17 | 0.072 | > 100 | 8.9 | > 1000 | 120 | CC[C@H](C)[C@@H]1NC(=O)[C@H](Cc2ccc(O)cc2)NC(=O)CCSSC[C@@H](C(=O)N2CCC[C@H]2C(=O)N[C@@H](CC(C)C)C(=O)NCC(N)=O)NC(=O)[C@H](CC(N)=O)NC(=O)[C@H](CO)NC1=O ([Mpa]YISNCPLG-NH2; disulfide 1-6)
